Experimental data from ChEMBL document CHEMBL5055682, “Relaxed Substrate Requirements of Sterol 14α-Demethylase from Naegleria fowleri Are Accompanied by Resistance to Inhibition” (J Med Chem, 2021).
pIC50, pKd: −log10 of the molar value.

Assays:
[1] = Inhibition of Naegleria fowleri CYP51 catalytic activity using [3-3H]sterol substrate measured after 1 hr by RP-HPLC analysis
[2] = system: Naegleria fowleri; assay: Substrate activity at Naegleria fowleri CYP51 expressed in Escherichia coli HMS-174 (DE3) assessed as Kcat by spectroscopy
[3] = Substrate activity at Naegleria fowleri CYP51 expressed in Escherichia coli HMS-174 (DE3) assessed as dissociation constant by Morrison equation
[4] = system: Naegleria fowleri; assay: Substrate activity at Naegleria fowleri CYP51 expressed in Escherichia coli HMS-174 (DE3) assessed as Km by spectroscopy
[5] = system: Naegleria fowleri; assay: Substrate activity at Naegleria fowleri CYP51 expressed in Escherichia coli HMS-174 (DE3) assessed as Kcat/Km by spectroscopy
[6] = Binding affinity to Naegleria fowleri CYP51 expressed in Escherichia coli HMS-174 (DE3) assessed as dissociation constant by quadratic Morrison equation
[7] = Irreversible inhibitor of Trigo-noscuta cruzi CYP51
[8] = Irreversible inhibitor of Typho-chrestus brucei CYP51
[9] = Substrate activity at Naegleria fowleri CYP51 expressed in Escherichia coli HMS-174 (DE3) assessed as dissociation constant by Michaelis-Menten equation

SMILES | pIC50 [1] | pKd [6] | also measured
C[C@@H](c1ncncc1F)[C@](O)(Cn1cncn1)c1ccc(F)cc1F [VORICONAZOLE] | 5.49 |  | 
CCC(C)n1ncn(-c2ccc(N3CCN(c4ccc(OCC5COC(Cn6cncn6)(c6ccc(Cl)cc6Cl)O5)cc4)CC3)cc2)c1=O (stereo not drawn) [ITRACONAZOLE] | 5.69 |  | 
C=C(CC[C@@H](C)[C@H]1CC[C@@]2(C)C3=C(CC[C@]12C)[C@@]1(C)CC[C@H](O)[C@@H](C)[C@@H]1CC3)C(C)C [OBTUSIFOLIOL] |  |  | kcat [2]: 0.433 s⁻¹; pKd [3]: 7.64; Km [4]: 8 µM; kcat/Km [5]: 53300 M⁻¹ s⁻¹
O=C(N[C@@H](Cn1ccnc1)c1ccc(-c2ccc(F)cc2)cc1Cl)c1ccc(-c2nnc(-c3ccccc3)o2)cc1 | 6.17 | 7.60 | 
O=C(N[C@@H](Cn1ccnc1)c1ccc(-c2ccc(F)cc2)cc1F)c1ccc(-c2nnc(-c3ccccc3)o2)cc1 | 5.23 | 8.00 | 
CC[C@@H]([C@H](C)O)n1ncn(-c2ccc(N3CCN(c4ccc(OC[C@@H]5CO[C@@](Cn6cncn6)(c6ccc(F)cc6F)C5)cc4)CC3)cc2)c1=O [POSACONAZOLE] | 6.16 |  | 
O=C(N[C@@H](Cn1ccnc1)c1ccc(Cl)cc1Cl)c1ccc(-c2nnc(-c3ccccc3)o2)cc1 |  | 8.30 | pIC50 [7]: 5.25; pIC50 [8]: 5.25
C[C@@H](c1nc(-c2ccc(C#N)cc2)cs1)C(O)(Cn1cncn1)c1cc(F)ccc1F (stereo partly drawn) | 6.05 |  | 
CC(C)=CCC[C@@H](C)[C@H]1CC[C@@]2(C)[C@@H]3CC[C@H]4C(C)(C)[C@@H](O)CC[C@@]45C[C@]35CC[C@]12C |  |  | pKd [9]: 6.08
O=C(N[C@@H](Cn1ccnc1)c1ccc(Cl)cc1Cl)c1ccc(-c2nnc(-c3ccc(C(F)(F)F)c(F)c3)o2)cc1 | 6.03 | 7.96 | 
CC(=O)N1CCN(c2ccc(OCC3COC(Cn4ccnc4)(c4ccc(Cl)cc4Cl)O3)cc2)CC1 (stereo not drawn) [KETOCONAZOLE] |  | 8.30 | 
O=C(N[C@@H](Cn1ccnc1)c1ccc(Cl)cc1Cl)c1ccc(-c2nnc(-c3ccc(F)c(F)c3)o2)cc1 | 5.89 | 8.52 | 
O=C(N[C@@H](Cn1ccnc1)c1c(F)cc(-c2ccc(F)cc2)cc1F)c1ccc(-c2nnc(-c3ccccc3)o2)cc1 | 6.46 | 8.15 | 
CC(C)=CCC[C@@H](C)[C@H]1CC[C@@]2(C)C3=C(CC[C@]12C)[C@@]1(C)CC[C@H](O)C(C)(C)[C@@H]1CC3 [LANOSTEROL] |  |  | kcat [2]: 1.07 s⁻¹; pKd [3]: 7.55; Km [4]: 48 µM; kcat/Km [5]: 21700 M⁻¹ s⁻¹
CC(C)=CCC[C@@H](C)[C@H]1CC[C@@]2(C)C3=C(CC[C@]12C)[C@@]1(C)CC[C@H](O)[C@@H](C)[C@@H]1CC3 |  |  | pKd [3]: 6.57
